The values below come from ChEMBL document CHEMBL1158085, “Chrysosporide, a cyclic pentapeptide from a New Zealand sample of the fungus Sepedonium chrysospermum” (J Nat Prod, 2006).

This assay relates to P388. Kind of assay: Cytotoxicity against mouse P388 cells. The class given is functional, cell-based.
The term IC50 denotes the concentration that inhibits the measured activity by half. Turning to `Cc1cc(O)c(C)c(O)c1C=O`, the IC50 was 126 µM. For `CC(=O)Cc1cc(O)c(C)c(O)c1C=O` the value was 19.7 µM; for `CC(C)C[C@@H]1NC(=O)[C@H](CC(C)C)NC(=O)[C@@H](C)NC(=O)[C@H](C(C)C)NC(=O)[C@@H](CC(C)C)NC1=O` [CHRYSOSPORIDE], 33.4 µM. Consider `C/C=C/[C@@H]1OC(=O)C=C[C@@H]1O` [PHOMALACTONE], for which half-maximal inhibition (IC50) was put at 40.9 µM.
